Legend:
Type in all cases: functional, cell-based
[1] = Cytotoxicity against human BICR 22 cells measured after 8 days; details: BICR 22, 192 h
[2] = Cytotoxicity against human COV413B cells measured after 8 days; details: 192 h
[3] = test system: CT26.WT; assay: Cytotoxicity against mouse CT26.WT cells measured after 8 days; details: 192 h
[4] = test system: CHP-212; assay: Cytotoxicity against human CHP-212 cells measured after 8 days; details: CHP-212, 192 h
[5] = test system: MM1.S; assay: Cytotoxicity against human MM1.S cells measured after 8 days; details: 192 h
[6] = test system: Renca; assay: Cytotoxicity against mouse Renca cells measured after 8 days; details: 192 h
[7] = test system: 8305C; assay: Cytotoxicity against human 8305C cells measured after 8 days; details: 192 h
[8] = test system: SiHa; assay: Cytotoxicity against human SiHa cells measured after 8 days; details: 192 h
[9] = test system: HuP-T3; assay: Cytotoxicity against human HuP-T3 cells measured after 8 days; details: HuP-T3, 192 h
[10] = test system: EMT6; assay: Cytotoxicity against mouse EMT6 Luciferase cells measured after 8 days; details: EMT6, 192 h
[11] = Cytotoxicity against human MT-3 cells measured after 8 days; details: MT-3, 192 h
[12] = test system: Hs746T; assay: Cytotoxicity against human Hs746T cells measured after 8 days; details: 192 h
[13] = test system: SU-DHL-8; assay: Cytotoxicity against human SU-DHL-8 cells measured after 8 days; details: SU-DHL-8, 192 h
[14] = Cytotoxicity against human UM-UC-1 cells measured after 8 days; details: UM-UC-1, 192 h
[15] = Cytotoxicity against human UM-RC-6 cells measured after 8 days; details: UM-RC-6, 192 h
[16] = Cytotoxicity against human MS751 cells measured after 8 days; details: MS751, 192 h
[17] = Cytotoxicity against human KP-3L cells measured after 8 days; details: 192 h
[18] = test system: U-266; assay: Cytotoxicity against human U266B1 cells measured after 8 days; details: U-266, 192 h
[19] = Cytotoxicity against human DEOC-1 cells measured after 8 days; details: DEOC-1, 192 h
[20] = test system: RT-112; assay: Cytotoxicity against human RT-112 cells measured after 8 days; details: RT-112, 192 h
[21] = test system: B16-F10; assay: Cytotoxicity against mouse B16-F10 Luciferase cells measured after 8 days; details: B16-F10, 192 h
[22] = test system: SJRH30; assay: Cytotoxicity against human SJRH30 cells measured after 8 days; details: SJRH30, 192 h
[23] = test system: OAW-42; assay: Cytotoxicity against human OAW-42 cells measured after 8 days; details: OAW-42, 192 h
[24] = test system: ME-180; assay: Cytotoxicity against human ME-180 cells measured after 8 days; details: ME-180, 192 h
[25] = test system: SK-HEP1; assay: Cytotoxicity against human SK-HEP1 cells measured after 8 days; details: SK-HEP1, 192 h
[26] = test system: EFE-184; assay: Cytotoxicity against human EFE-184 cells measured after 8 days; details: EFE-184, 192 h
[27] = Cytotoxicity against human PK-1 cells measured after 8 days; details: PK-1, 192 h
[28] = Cytotoxicity against human HCS-2 cells measured after 8 days; details: HCS-2, 192 h
[29] = Cytotoxicity against human SM1 cells measured after 8 days; details: SM1, 192 h
[30] = test system: ES-2; assay: Cytotoxicity against human ES2 cells measured after 8 days; details: ES-2, 192 h
[31] = test system: SUM149PT; assay: Cytotoxicity against human SUM149PT cells measured after 8 days; details: 192 h
[32] = Cytotoxicity against human PaTu 8988s cells measured after 8 days; details: 192 h
[33] = Cytotoxicity against human NCI-H196 cells measured after 8 days; details: NCI-H196, 192 h
[34] = Cytotoxicity against human OCI-M1 cells measured after 8 days; details: OCI-M1, 192 h
[35] = Cytotoxicity against human OE21 cells measured after 8 days; details: OE21, 192 h
[36] = Cytotoxicity against human NCI-H2369 cells measured after 8 days; details: NCI-H2369, 192 h
[37] = test system: MCF-10A; assay: Cytotoxicity against human MCF-10A AKT2-/- cells measured after 8 days; details: 192 h
[38] = test system: KINGS-1; assay: Cytotoxicity against human KINGS-1 cells measured after 8 days; details: KINGS-1, 192 h
[39] = Cytotoxicity against human MMAc cells measured after 8 days; details: 192 h
[40] = test system: LOX IMVI; assay: Cytotoxicity against human LOX IMVI cells measured after 8 days; details: 192 h
[41] = Cytotoxicity against mouse AE17 cells measured after 8 days; details: AE17, 192 h
[42] = Cytotoxicity against human Panc 05.04 cells measured after 8 days; details: Panc 05.04, 192 h
[43] = Cytotoxicity against human 537-mel cells measured after 8 days; details: 192 h
[44] = Cytotoxicity against mouse 66cl-4 cells measured after 8 days; details: 66cl-4, 192 h
[45] = Cytotoxicity against human 51BLim 10 cells measured after 8 days; details: 51BLim 10, 192 h
[46] = Cytotoxicity against human JHH-4 cells measured after 8 days; details: JHH-4, 192 h
[47] = test system: H322; assay: Cytotoxicity against human H322 cells measured after 8 days; details: NCI-H322, 192 h
[48] = test system: CHL-1; assay: Cytotoxicity against human CHL-1 cells measured after 8 days; details: CHL-1, 192 h
[49] = test system: Hs 695T; assay: Cytotoxicity against human Hs 695T cells measured after 8 days; details: 192 h
[50] = test system: 769-P; assay: Cytotoxicity against human 769-P cells measured after 8 days; details: 192 h
[51] = Cytotoxicity against human NCE-G 84 cells measured after 8 days; details: NCE-G 84, 192 h
[52] = test system: SNU-423; assay: Cytotoxicity against human SNU-423 cells measured after 8 days; details: SNU-423, 192 h
[53] = Cytotoxicity against human QGP-1 cells measured after 8 days; details: QGP-1, 192 h
[54] = Cytotoxicity against human MR1-3 cells measured after 8 days; details: MR1-3, 192 h
[55] = test system: AN3-CA; assay: Cytotoxicity against human AN3-CA cells measured after 8 days; details: 192 h
[56] = test system: L-363; assay: Cytotoxicity against human L-363 cells measured after 8 days; details: L-363, 192 h
[57] = Cytotoxicity against human COLO 794 cells measured after 8 days; details: COLO 794, 192 h
[58] = test system: NALM-6; assay: Cytotoxicity against human NALM-6 cells measured after 8 days; details: NALM-6, 192 h
[59] = Cytotoxicity against human HCC2885 cells measured after 8 days; details: HCC2885, 192 h
[60] = test system: KYSE-140; assay: Cytotoxicity against human KYSE-140 cells measured after 8 days; details: KYSE-140, 192 h
[61] = Cytotoxicity against human PK-45H cells measured after 8 days; details: 192 h
[62] = test system: MC-38; assay: Cytotoxicity against mouse MC-38 cells measured after 8 days; details: MC-38, 192 h
[63] = Cytotoxicity against human KMRC-20 cells measured after 8 days; details: KMRC-20, 192 h
[64] = test system: RS4-11; assay: Cytotoxicity against human RS4-11 cells measured after 8 days; details: RS4-11, 192 h

SMILES: C/C=C/Cn1cc(-c2ccc(C(=O)N3CCOCC3)cc2)c2cc[nH]c2c1=O
- IC50 [1]: 20 µM
- IC50 [2]: 20 µM
- IC50 [3]: 20 µM
- IC50 [4]: 18.6 µM
- IC50 [5]: 20 µM
- IC50 [6]: 20 µM
- IC50 [7]: 20 µM
- IC50 [8]: 20 µM
- IC50 [9]: 20 µM
- IC50 [10]: 20 µM
- IC50 [11]: 20 µM
- IC50 [12]: 20 µM
- IC50 [13]: 12.8 µM
- IC50 [14]: 20 µM
- IC50 [15]: 20 µM
- IC50 [16]: 20 µM
- IC50 [17]: 20 µM
- IC50 [18]: 20 µM
- IC50 [19]: 20 µM
- IC50 [20]: 20 µM
- IC50 [21]: 20 µM
- IC50 [22]: 20 µM
- IC50 [23]: 20 µM
- IC50 [24]: 20 µM
- IC50 [25]: 20 µM
- IC50 [26]: 20 µM
- IC50 [27]: 20 µM
- IC50 [28]: 20 µM
- IC50 [29]: 17.9 µM
- IC50 [30]: 20 µM
- IC50 [31]: 20 µM
- IC50 [32]: 20 µM
- IC50 [33]: 20 µM
- IC50 [34]: 11.6 µM
- IC50 [35]: 20 µM
- IC50 [36]: 20 µM
- IC50 [37]: 14.2 µM
- IC50 [38]: 20 µM
- IC50 [39]: 20 µM
- IC50 [40]: 20 µM
- IC50 [41]: 18.1 µM
- IC50 [42]: 20 µM
- IC50 [43]: 20 µM
- IC50 [44]: 20 µM
- IC50 [45]: 12.2 µM
- IC50 [46]: 20 µM
- IC50 [47]: 20 µM
- IC50 [48]: 15.2 µM
- IC50 [49]: 20 µM
- IC50 [50]: 20 µM
- IC50 [51]: 20 µM
- IC50 [52]: 20 µM
- IC50 [53]: 20 µM
- IC50 [54]: 20 µM
- IC50 [55]: 20 µM
- IC50 [56]: 10.4 µM
- IC50 [57]: 20 µM
- IC50 [58]: 18.8 µM
- IC50 [59]: 20 µM
- IC50 [60]: 20 µM
- IC50 [61]: 20 µM
- IC50 [62]: 20 µM
- IC50 [63]: 20 µM

SMILES: C/C=C/Cn1cc(-c2ccc(C(C)(C)O)cc2OC)c2cc[nH]c2c1=O
- IC50 [1]: 20 µM
- IC50 [2]: 20 µM
- IC50 [3]: 20 µM
- IC50 [4]: 20 µM
- IC50 [5]: 20 µM
- IC50 [6]: 20 µM
- IC50 [7]: 20 µM
- IC50 [8]: 20 µM
- IC50 [9]: 14.1 µM
- IC50 [10]: 20 µM
- IC50 [11]: 20 µM
- IC50 [12]: 20 µM
- IC50 [13]: 3.26 µM
- IC50 [14]: 20 µM
- IC50 [15]: 20 µM
- IC50 [16]: 20 µM
- IC50 [17]: 20 µM
- IC50 [18]: 20 µM
- IC50 [19]: 20 µM
- IC50 [20]: 20 µM
- IC50 [21]: 20 µM
- IC50 [22]: 20 µM
- IC50 [23]: 20 µM
- IC50 [24]: 20 µM
- IC50 [25]: 20 µM
- IC50 [26]: 20 µM
- IC50 [27]: 20 µM
- IC50 [28]: 20 µM
- IC50 [29]: 11.2 µM
- IC50 [30]: 20 µM
- IC50 [31]: 20 µM
- IC50 [32]: 20 µM
- IC50 [33]: 20 µM
- IC50 [34]: 10.7 µM
- IC50 [35]: 20 µM
- IC50 [36]: 20 µM
- IC50 [37]: 14.2 µM
- IC50 [38]: 20 µM
- IC50 [39]: 20 µM
- IC50 [40]: 20 µM
- IC50 [41]: 20 µM
- IC50 [42]: 20 µM
- IC50 [43]: 20 µM
- IC50 [44]: 20 µM
- IC50 [45]: 20 µM
- IC50 [46]: 20 µM
- IC50 [47]: 20 µM
- IC50 [48]: 15.2 µM
- IC50 [49]: 20 µM
- IC50 [50]: 20 µM
- IC50 [51]: 20 µM
- IC50 [52]: 20 µM
- IC50 [53]: 20 µM
- IC50 [54]: 20 µM
- IC50 [55]: 20 µM
- IC50 [56]: 20 µM
- IC50 [57]: 20 µM
- IC50 [58]: 20 µM
- IC50 [64]: 15.4 µM
- IC50 [59]: 20 µM
- IC50 [60]: 20 µM
- IC50 [61]: 20 µM
- IC50 [62]: 20 µM
- IC50 [63]: 20 µM

SMILES: C/C=C/Cn1cc(-c2cc(OC)c(C(=O)N3CCOCC3)cc2OC)c2cc(C)[nH]c2c1=O
- IC50 [64]: 2 µM
